Data reported in the NIST ThermoML archive (doi:10.1021/je900550v).
Numbers after ± are expanded uncertainties.

Conditions: 101.33 kPa, Liquid; for speed of sound: Pulse-echo method; for mass density: Vibrating tube method

Work on CCC(=O)[O-].C[NH2+]CCO [2-hydroxy-N-methylethanaminium propionate] yielded a viscosity (308.15 K) of 118 ± 7.2 mPa·s, a speed of sound (308.15 K) of 1660.5 ± 2.1 m/s and a mass density (308.15 K) of 1064.8 ± 2.2 kg/m3. The speed of sound (308.4 K) was 1659.8 ± 2.1 m/s, the mass density (308.4 K) was 1064.63 ± 2.2 kg/m3 and the speed of sound (308.65 K) was 1659 ± 2.1 m/s. For the same compound, the mass density (308.65 K) was 1064.46 ± 2.2 kg/m3, the speed of sound (308.9 K) was 1658.3 ± 2.1 m/s and the mass density (308.9 K) was 1064.3 ± 2.2 kg/m3. The speed of sound (309.15 K) was 1657.6 ± 2.1 m/s, the mass density (309.15 K) was 1064.14 ± 2.2 kg/m3 and the speed of sound (309.4 K) was 1656.8 ± 2.1 m/s. The mass density (309.4 K) was 1063.97 ± 2.2 kg/m3, the speed of sound (309.65 K) was 1656.1 ± 2.1 m/s and the mass density (309.65 K) was 1063.81 ± 2.2 kg/m3. It also gave a speed of sound (309.9 K) of 1655.4 ± 2.1 m/s, a mass density (309.9 K) of 1063.64 ± 2.2 kg/m3 and a viscosity (310.15 K) of 105.84 ± 5.6 mPa·s. For the same compound, the speed of sound (310.15 K) was 1654.6 ± 2.1 m/s, the mass density (310.15 K) was 1063.48 ± 2.2 kg/m3 and the speed of sound (310.4 K) was 1653.9 ± 2.1 m/s. For the same compound, the mass density (310.4 K) was 1063.31 ± 2.2 kg/m3, the speed of sound (310.65 K) was 1653.1 ± 2.1 m/s and the mass density (310.65 K) was 1063.15 ± 2.2 kg/m3. The speed of sound (310.91 K) was 1652.4 ± 2.1 m/s, the mass density (310.91 K) was 1062.98 ± 2.2 kg/m3 and the speed of sound (311.16 K) was 1651.7 ± 2.1 m/s. For the same compound, the mass density (311.16 K) was 1062.82 ± 2.2 kg/m3, the speed of sound (311.4 K) was 1650.9 ± 2.1 m/s and the mass density (311.4 K) was 1062.65 ± 2.2 kg/m3. It also gave a speed of sound (311.65 K) of 1650.2 ± 2.1 m/s, a mass density (311.65 K) of 1062.49 ± 2.2 kg/m3 and a speed of sound (311.91 K) of 1649.4 ± 2.1 m/s. For the same compound, the mass density (311.91 K) was 1062.33 ± 2.2 kg/m3, the speed of sound (312.16 K) was 1648.7 ± 2.1 m/s and the mass density (312.16 K) was 1062.16 ± 2.2 kg/m3. For the same compound, the speed of sound (312.41 K) was 1648 ± 2.1 m/s, the mass density (312.41 K) was 1061.99 ± 2.2 kg/m3 and the speed of sound (312.66 K) was 1647.2 ± 2.1 m/s. For the same compound, the mass density (312.66 K) was 1061.83 ± 2.2 kg/m3, the speed of sound (312.91 K) was 1646.5 ± 2.1 m/s and the mass density (312.91 K) was 1061.66 ± 2.2 kg/m3. It also gave a viscosity (313.15 K) of 93.38 ± 4.3 mPa·s, a speed of sound (313.16 K) of 1645.7 ± 2.1 m/s and a mass density (313.16 K) of 1061.5 ± 2.2 kg/m3. The speed of sound (313.4 K) was 1645 ± 2.1 m/s, the mass density (313.4 K) was 1061.33 ± 2.2 kg/m3 and the speed of sound (313.66 K) was 1644.2 ± 2.1 m/s. For the same compound, the mass density (313.66 K) was 1061.17 ± 2.2 kg/m3, the speed of sound (313.9 K) was 1643.5 ± 2.1 m/s and the mass density (313.9 K) was 1061 ± 2.2 kg/m3. It also gave a speed of sound (314.15 K) of 1642.8 ± 2.1 m/s, a mass density (314.15 K) of 1060.84 ± 2.2 kg/m3 and a speed of sound (314.4 K) of 1642 ± 2.1 m/s. The mass density (314.4 K) was 1060.67 ± 2.2 kg/m3, the speed of sound (314.65 K) was 1641.3 ± 2.1 m/s and the mass density (314.65 K) was 1060.5 ± 2.2 kg/m3. For the same compound, the speed of sound (314.9 K) was 1640.5 ± 2.1 m/s, the mass density (314.9 K) was 1060.34 ± 2.2 kg/m3 and the speed of sound (315.15 K) was 1639.8 ± 2.1 m/s. The mass density (315.15 K) was 1060.17 ± 2.2 kg/m3, the speed of sound (315.41 K) was 1639 ± 2.1 m/s and the mass density (315.41 K) was 1060.01 ± 2.2 kg/m3. It also gave a viscosity (315.65 K) of 81.2 ± 3.2 mPa·s, a speed of sound (315.65 K) of 1638.3 ± 2.1 m/s and a mass density (315.65 K) of 1059.84 ± 2.2 kg/m3. It also gave a speed of sound (315.91 K) of 1637.6 ± 2.1 m/s, a mass density (315.91 K) of 1059.67 ± 2.2 kg/m3 and a speed of sound (316.16 K) of 1636.8 ± 2.1 m/s. It also gave a mass density (316.16 K) of 1059.51 ± 2.2 kg/m3, a speed of sound (316.41 K) of 1636.1 ± 2.1 m/s and a mass density (316.41 K) of 1059.34 ± 2.2 kg/m3. It also gave a speed of sound (316.66 K) of 1635.4 ± 2.1 m/s, a mass density (316.66 K) of 1059.18 ± 2.2 kg/m3 and a speed of sound (316.91 K) of 1634.6 ± 2.1 m/s. For the same compound, the mass density (316.91 K) was 1059.01 ± 2.2 kg/m3, the speed of sound (317.16 K) was 1633.9 ± 2.1 m/s and the mass density (317.16 K) was 1058.84 ± 2.2 kg/m3. It also gave a speed of sound (317.4 K) of 1633.2 ± 2.1 m/s, a mass density (317.4 K) of 1058.67 ± 2.2 kg/m3 and a speed of sound (317.66 K) of 1632.4 ± 2.1 m/s. It also gave a mass density (317.66 K) of 1058.51 ± 2.2 kg/m3, a speed of sound (317.91 K) of 1631.7 ± 2.1 m/s and a mass density (317.91 K) of 1058.34 ± 2.2 kg/m3. It also gave a viscosity (318.15 K) of 70.3 ± 2.3 mPa·s, a speed of sound (318.16 K) of 1630.9 ± 2.1 m/s and a mass density (318.16 K) of 1058.17 ± 2.2 kg/m3. The speed of sound (318.41 K) was 1630.2 ± 2.1 m/s, the mass density (318.41 K) was 1058.01 ± 2.2 kg/m3 and the speed of sound (318.65 K) was 1629.4 ± 2.1 m/s. The mass density (318.65 K) was 1057.84 ± 2.2 kg/m3, the speed of sound (318.9 K) was 1628.7 ± 2.1 m/s and the mass density (318.9 K) was 1057.67 ± 2.2 kg/m3. It also gave a speed of sound (319.16 K) of 1628 ± 2.1 m/s, a mass density (319.16 K) of 1057.51 ± 2.2 kg/m3 and a speed of sound (319.41 K) of 1627.2 ± 2.1 m/s. The mass density (319.41 K) was 1057.34 ± 2.2 kg/m3, the viscosity (319.65 K) was 64.18 ± 1.9 mPa·s and the speed of sound (319.65 K) was 1626.5 ± 2.1 m/s. For the same compound, the mass density (319.65 K) was 1057.17 ± 2.2 kg/m3, the speed of sound (319.91 K) was 1625.7 ± 2.1 m/s and the mass density (319.91 K) was 1057 ± 2.2 kg/m3. For the same compound, the speed of sound (320.16 K) was 1624.9 ± 2.1 m/s, the mass density (320.16 K) was 1056.83 ± 2.2 kg/m3 and the speed of sound (320.41 K) was 1624.2 ± 2.1 m/s. The mass density (320.41 K) was 1056.67 ± 2.2 kg/m3, the speed of sound (320.65 K) was 1623.4 ± 2.1 m/s and the mass density (320.65 K) was 1056.5 ± 2.2 kg/m3. The speed of sound (320.91 K) was 1622.7 ± 2.1 m/s, the mass density (320.91 K) was 1056.33 ± 2.2 kg/m3 and the speed of sound (321.15 K) was 1622 ± 2.1 m/s. For the same compound, the mass density (321.15 K) was 1056.16 ± 2.2 kg/m3, the speed of sound (321.41 K) was 1621.2 ± 2.1 m/s and the mass density (321.41 K) was 1056 ± 2.2 kg/m3. The speed of sound (321.66 K) was 1620.4 ± 2.1 m/s, the mass density (321.66 K) was 1055.83 ± 2.2 kg/m3 and the speed of sound (321.9 K) was 1619.7 ± 2.1 m/s. The mass density (321.9 K) was 1055.66 ± 2.2 kg/m3, the speed of sound (322.15 K) was 1618.9 ± 2.1 m/s and the mass density (322.15 K) was 1055.49 ± 2.2 kg/m3. It also gave a speed of sound (322.41 K) of 1618.2 ± 2.1 m/s, a mass density (322.41 K) of 1055.32 ± 2.2 kg/m3 and a speed of sound (322.65 K) of 1617.5 ± 2.1 m/s. The mass density (322.65 K) was 1055.15 ± 2.2 kg/m3.
